Measurements published in patent US20210220370A1, “SELECTIVE HDAC8 INHIBITORS AND THEIR USES” (HOCHSCHULE DARMSTADT, priority 2015, published 2021).

Key:
HDAC1 = HDAC1 (Homo sapiens, UniProt Q13547); assay: HDAC1 colorimetric assay, substrate Boc-Lys(Ac)-AMC
Description: 1 nM of HDAC1 was incubated with increasing concentrations of the respective compound for 30 minutes at 30° C. The reaction was initiated by addition of 50 μM of the substrate Boc-Lys(Ac)-AMC. After an incubation of 60 minutes the reaction was stopped by addition of 20 μM SAHA and the deacetylated substrate was converted into a fluorescent product by the addition of trypsin.

HDAC7 = target: T1, HDAC7 (Homo sapiens, UniProt Q8WUI4); assay: HDAC7 colorimetric assay, substrate Boc-Lys(TFA)-AMC
T1 sequence (Q8WUI4 1-952): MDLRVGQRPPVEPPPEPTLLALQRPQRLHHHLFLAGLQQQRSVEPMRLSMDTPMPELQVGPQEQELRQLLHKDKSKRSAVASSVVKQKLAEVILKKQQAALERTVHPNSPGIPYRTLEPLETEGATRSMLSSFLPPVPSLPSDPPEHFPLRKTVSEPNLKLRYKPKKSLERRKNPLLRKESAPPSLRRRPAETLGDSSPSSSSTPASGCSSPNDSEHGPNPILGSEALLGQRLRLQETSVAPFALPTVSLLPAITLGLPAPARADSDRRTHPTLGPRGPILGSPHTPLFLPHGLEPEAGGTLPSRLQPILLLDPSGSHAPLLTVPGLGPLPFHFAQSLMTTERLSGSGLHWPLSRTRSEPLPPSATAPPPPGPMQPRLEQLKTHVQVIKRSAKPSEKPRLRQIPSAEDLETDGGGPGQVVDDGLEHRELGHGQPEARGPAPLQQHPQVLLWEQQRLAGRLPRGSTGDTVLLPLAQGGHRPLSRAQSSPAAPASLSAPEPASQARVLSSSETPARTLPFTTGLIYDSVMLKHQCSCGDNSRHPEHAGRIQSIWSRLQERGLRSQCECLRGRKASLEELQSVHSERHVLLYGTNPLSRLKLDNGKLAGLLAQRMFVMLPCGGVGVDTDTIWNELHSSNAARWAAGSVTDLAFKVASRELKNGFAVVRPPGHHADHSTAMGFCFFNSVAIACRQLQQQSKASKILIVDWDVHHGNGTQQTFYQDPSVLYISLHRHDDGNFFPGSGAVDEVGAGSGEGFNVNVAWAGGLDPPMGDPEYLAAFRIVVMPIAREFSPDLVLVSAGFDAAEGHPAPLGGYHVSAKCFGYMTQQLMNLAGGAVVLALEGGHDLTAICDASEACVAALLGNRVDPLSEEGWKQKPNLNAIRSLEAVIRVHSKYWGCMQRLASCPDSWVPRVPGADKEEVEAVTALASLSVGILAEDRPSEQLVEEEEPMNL

HDAC3 = HDAC3 (Homo sapiens, UniProt O15379); assay: HDAC3 colorimetric assay, substrate Boc-Lys(Ac)-AMC; type: biochemical; details: Table 1
HDAC2 = HDAC2 (Homo sapiens, UniProt Q92769); assay: HDAC2 colorimetric assay, substrate Boc-Lys(Ac)-AMC; type: biochemical; details: Table 1
[1] = test system: uterine leiomyosarcoma cell line SKUT-1; assay: Growth inhibition of cancer cell line, resazurin assay; type: cell-based, Human; details: Homo sapiens, SK-UT-1; Table 2, resazurin assay
HDAC4 = HDAC4 (Homo sapiens, UniProt P56524); type: biochemical; details: Table 1
[2] = test system: breast cancer cell line MCF-7; assay: Growth inhibition of cancer cell line, resazurin assay; type: cell-based, Human; details: Homo sapiens, MCF7; Table 2, resazurin assay
HDAC8 = target: T2, HDAC8 (Homo sapiens, UniProt Q9BY41); assay: HDAC8 colorimetric assay, substrate Boc-Lys(TFA)-AMC
T2 sequence (Q9BY41 1-377): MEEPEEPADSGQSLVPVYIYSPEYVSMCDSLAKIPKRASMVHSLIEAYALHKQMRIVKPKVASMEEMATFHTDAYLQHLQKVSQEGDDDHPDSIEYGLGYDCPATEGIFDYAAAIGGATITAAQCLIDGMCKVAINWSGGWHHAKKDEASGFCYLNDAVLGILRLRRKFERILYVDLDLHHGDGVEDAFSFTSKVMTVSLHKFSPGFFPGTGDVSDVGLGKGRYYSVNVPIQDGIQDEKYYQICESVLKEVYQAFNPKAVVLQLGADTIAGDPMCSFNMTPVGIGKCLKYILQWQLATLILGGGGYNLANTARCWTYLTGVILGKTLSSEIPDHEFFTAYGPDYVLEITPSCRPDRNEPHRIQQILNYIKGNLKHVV
Description: 1 nM of HDAC4 was incubated with increasing concentrations of the respective compound for 30 minutes at 30° C. The reaction was initiated by addition of 20 μM of the substrate Boc-Lys(trifluoracetyl)-AMC. After an incubation of 60 minutes the reaction was stopped by addition of 20 μM SAHA and the deacetylated substrate was converted into a fluorescent product by the addition of trypsin.

HDAC6 = target: T3, HDAC6 (Homo sapiens, UniProt Q9UBN7); assay: HDAC6 colorimetric assay, substrate Boc-Lys(Ac)-AMC; type: biochemical; details: Table 1; read-out: IC50 HDAC6
T3 sequence (Q9UBN7 1-1215): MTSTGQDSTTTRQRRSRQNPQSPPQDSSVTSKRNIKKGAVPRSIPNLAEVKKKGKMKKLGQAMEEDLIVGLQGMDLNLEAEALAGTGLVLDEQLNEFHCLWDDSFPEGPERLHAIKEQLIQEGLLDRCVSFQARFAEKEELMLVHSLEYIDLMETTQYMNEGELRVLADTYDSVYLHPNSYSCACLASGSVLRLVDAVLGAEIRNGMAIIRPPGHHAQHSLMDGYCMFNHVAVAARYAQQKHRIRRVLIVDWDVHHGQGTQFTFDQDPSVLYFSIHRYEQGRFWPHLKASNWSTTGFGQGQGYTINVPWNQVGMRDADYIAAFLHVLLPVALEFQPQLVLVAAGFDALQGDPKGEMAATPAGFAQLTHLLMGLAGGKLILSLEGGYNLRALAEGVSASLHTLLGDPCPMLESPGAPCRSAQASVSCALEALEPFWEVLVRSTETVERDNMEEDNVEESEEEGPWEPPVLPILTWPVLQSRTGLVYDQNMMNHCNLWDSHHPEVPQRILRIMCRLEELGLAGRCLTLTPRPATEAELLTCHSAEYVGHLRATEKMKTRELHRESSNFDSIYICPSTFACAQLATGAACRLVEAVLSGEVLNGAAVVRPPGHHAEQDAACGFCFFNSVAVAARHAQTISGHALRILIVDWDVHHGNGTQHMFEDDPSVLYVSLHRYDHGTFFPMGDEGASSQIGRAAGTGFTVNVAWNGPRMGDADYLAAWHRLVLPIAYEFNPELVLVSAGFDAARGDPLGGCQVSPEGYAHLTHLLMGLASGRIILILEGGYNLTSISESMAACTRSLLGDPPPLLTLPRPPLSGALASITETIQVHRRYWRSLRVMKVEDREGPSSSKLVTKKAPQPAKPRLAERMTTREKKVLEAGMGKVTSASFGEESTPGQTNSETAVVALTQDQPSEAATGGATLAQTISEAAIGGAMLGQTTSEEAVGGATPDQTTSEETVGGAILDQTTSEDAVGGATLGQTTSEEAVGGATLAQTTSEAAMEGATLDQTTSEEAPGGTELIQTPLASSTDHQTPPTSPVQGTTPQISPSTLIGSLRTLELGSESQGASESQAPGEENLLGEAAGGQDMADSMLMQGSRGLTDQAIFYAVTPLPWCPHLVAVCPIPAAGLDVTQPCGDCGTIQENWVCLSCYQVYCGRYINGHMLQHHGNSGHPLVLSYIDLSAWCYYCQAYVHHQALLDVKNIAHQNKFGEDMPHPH

[3] = test system: T cell leukemia cell line JURKAT; assay: Growth inhibition of cancer cell line, resazurin assay; details: Homo sapiens, Jurkat, read-out: GI50 JURKAT
Description: The following tumor cell lines were used: • Human uterine leiomyosarcoma cell line SKUT-1 (ATCC® HTB114™) • Human T cell leukemia cell line JURKAT (ATCC® TIB152™) • Human breast cancer cell line MCF-7 (ATCC® HTB22™)
Cells were cultured in Dulbecco's modified Eagle's medium (DMEM) supplemented with 10% FCS.

HDAC5 = HDAC5 (Homo sapiens, UniProt Q9UQL6); assay: HDAC5 colorimetric assay, substrate Boc-Lys(TFA)-AMC
Chain of HDAC5 (Q9UQL6 whole entry): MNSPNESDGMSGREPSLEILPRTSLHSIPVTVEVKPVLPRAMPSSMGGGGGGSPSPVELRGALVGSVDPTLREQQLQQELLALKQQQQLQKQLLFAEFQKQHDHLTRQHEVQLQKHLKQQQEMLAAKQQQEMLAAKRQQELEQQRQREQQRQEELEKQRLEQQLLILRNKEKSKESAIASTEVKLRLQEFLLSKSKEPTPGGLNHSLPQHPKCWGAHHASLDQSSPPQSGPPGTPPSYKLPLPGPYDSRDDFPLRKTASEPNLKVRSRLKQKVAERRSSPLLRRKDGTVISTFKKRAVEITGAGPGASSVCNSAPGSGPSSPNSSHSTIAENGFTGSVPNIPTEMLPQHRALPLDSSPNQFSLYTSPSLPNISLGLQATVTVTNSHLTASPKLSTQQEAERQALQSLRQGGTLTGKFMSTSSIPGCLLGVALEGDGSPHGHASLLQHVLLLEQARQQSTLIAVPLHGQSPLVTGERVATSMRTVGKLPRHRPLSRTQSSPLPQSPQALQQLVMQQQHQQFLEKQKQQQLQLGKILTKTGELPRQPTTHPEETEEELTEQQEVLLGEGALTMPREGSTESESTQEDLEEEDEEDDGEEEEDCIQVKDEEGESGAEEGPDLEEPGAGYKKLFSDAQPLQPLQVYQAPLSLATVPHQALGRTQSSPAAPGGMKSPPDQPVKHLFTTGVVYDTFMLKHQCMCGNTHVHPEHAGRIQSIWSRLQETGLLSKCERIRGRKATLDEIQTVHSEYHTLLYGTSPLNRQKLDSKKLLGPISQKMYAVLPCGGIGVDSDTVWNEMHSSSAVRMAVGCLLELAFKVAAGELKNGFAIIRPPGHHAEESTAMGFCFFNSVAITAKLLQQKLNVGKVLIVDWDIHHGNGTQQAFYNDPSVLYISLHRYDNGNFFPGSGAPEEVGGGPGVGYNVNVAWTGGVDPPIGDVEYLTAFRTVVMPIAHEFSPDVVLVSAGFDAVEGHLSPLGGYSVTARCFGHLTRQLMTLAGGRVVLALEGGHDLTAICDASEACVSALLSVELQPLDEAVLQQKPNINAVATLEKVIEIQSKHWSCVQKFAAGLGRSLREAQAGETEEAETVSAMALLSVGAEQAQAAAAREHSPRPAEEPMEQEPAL

Chain of HDAC4 (P56524 whole entry): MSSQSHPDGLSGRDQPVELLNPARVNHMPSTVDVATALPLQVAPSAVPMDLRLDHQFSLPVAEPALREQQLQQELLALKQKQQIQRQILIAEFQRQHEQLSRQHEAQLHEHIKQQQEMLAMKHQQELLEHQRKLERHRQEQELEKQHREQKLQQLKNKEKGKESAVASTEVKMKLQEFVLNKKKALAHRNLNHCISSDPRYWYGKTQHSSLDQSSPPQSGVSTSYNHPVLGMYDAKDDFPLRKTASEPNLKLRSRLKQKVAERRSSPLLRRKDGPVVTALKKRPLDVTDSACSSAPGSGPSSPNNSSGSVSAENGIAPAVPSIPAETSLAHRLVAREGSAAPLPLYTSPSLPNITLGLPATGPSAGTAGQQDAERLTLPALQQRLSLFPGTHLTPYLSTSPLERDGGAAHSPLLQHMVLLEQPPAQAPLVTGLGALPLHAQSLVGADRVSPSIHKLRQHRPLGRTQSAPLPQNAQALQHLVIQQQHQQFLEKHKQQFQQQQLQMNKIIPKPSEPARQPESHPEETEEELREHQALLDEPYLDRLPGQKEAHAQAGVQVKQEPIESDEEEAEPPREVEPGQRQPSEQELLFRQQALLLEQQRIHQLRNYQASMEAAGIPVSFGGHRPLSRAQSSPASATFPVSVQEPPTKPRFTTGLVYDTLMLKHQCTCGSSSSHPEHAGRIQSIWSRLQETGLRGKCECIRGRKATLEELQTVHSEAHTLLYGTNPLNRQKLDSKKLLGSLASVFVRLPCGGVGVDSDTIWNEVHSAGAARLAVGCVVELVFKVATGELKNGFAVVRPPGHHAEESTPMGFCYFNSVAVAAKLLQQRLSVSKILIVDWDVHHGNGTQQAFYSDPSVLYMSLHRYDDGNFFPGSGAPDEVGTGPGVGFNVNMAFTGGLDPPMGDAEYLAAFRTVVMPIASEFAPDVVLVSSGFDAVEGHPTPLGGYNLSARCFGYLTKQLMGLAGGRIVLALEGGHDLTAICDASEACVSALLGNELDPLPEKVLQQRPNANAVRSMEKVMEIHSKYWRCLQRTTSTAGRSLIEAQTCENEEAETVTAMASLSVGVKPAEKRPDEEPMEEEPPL
Chain of HDAC1 (Q13547 whole entry): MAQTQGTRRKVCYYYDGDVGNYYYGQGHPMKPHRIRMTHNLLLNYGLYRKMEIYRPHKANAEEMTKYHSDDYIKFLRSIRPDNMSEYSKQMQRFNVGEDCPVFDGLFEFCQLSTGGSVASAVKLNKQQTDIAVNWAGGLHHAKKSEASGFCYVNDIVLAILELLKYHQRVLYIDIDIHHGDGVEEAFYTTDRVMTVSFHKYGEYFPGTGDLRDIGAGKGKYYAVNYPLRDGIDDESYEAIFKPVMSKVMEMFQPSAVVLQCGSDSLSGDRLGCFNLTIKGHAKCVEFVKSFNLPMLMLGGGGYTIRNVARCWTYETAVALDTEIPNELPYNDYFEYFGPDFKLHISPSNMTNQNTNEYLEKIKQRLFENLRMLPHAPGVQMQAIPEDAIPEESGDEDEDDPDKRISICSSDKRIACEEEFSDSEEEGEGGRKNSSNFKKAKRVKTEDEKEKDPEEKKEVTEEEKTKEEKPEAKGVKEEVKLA
Chain of HDAC3 (O15379 whole entry): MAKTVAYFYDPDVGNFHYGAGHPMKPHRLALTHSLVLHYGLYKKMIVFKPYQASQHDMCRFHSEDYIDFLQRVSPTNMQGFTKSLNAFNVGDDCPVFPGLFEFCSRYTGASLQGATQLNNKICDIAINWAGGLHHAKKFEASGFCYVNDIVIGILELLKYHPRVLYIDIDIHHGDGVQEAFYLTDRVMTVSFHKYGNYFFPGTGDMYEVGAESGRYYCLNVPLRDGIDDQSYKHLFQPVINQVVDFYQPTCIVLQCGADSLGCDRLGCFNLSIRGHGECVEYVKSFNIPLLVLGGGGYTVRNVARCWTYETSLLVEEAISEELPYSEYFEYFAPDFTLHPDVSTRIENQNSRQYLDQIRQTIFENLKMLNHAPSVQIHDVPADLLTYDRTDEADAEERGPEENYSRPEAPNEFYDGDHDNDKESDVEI
Chain of HDAC3 (Q9Y618 395-489 partner limits assumed): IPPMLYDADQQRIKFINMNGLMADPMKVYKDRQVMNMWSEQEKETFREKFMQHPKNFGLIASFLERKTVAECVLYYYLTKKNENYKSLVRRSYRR
Chain of HDAC2 (Q92769 whole entry): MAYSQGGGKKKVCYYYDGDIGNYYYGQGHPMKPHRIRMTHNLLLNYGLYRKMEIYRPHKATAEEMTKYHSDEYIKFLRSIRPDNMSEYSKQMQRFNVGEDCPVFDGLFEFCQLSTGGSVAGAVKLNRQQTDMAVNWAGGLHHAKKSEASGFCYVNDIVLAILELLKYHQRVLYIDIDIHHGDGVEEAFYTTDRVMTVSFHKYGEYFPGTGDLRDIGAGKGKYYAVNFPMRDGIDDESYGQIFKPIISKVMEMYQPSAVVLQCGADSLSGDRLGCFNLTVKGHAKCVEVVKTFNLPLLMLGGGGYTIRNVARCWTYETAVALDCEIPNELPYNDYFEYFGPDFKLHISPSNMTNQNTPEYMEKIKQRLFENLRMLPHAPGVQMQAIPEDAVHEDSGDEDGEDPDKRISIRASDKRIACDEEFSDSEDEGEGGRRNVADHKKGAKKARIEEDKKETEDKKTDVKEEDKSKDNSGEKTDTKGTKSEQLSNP

Row | IC50 (HDAC1; IC50 HDAC1, Table 1) | IC50 (HDAC1; IC50 for HDAC1, FIG. 3, 50 μM Boc-Lys(Ac)-AMC) | IC50 (HDAC7; IC50 HDAC7, Table 1) | IC50 (HDAC7; IC50 for HDAC7, FIG. 3, 20 μM Boc-Lys(TFA)-AMC) | IC50 (HDAC3) | IC50 (HDAC2) | GI50 [1] | IC50 (HDAC4) | GI50 [2] | IC50 (HDAC8; IC50 HDAC8, Table 1) | IC50 (HDAC8; IC50 for HDAC8, FIG. 3, 20 μM Boc-Lys(TFA)-AMC) | IC50 (HDAC6) | GI50 [3] | IC50 (HDAC5) | SMILES
1 | 21 ± 1 µM | 20 µM | 0.5 ± 0.2 µM | 0.51 µM | > 50 µM | > 50 µM | 64 ± 7 µM | > 50 µM | 60 ± 6 µM | 0.18 ± 0.02 µM | 0.2 µM | 32 ± 18 µM | 67 ± 8 µM | 13 µM | N=C1Sc2ccc(Cl)cc2C2=NCCN12 [Compound 13c, 9-Chloro-2H-Benzo[e]Imidazo[1,2-c][1,3]Thiazin-5(3H)-Imine]
2 | 2.1 ± 0.2 µM |  | 1.5 ± 0.4 µM |  | 5.3 ± 0.4 µM | 30 ± 2 µM | 24 ± 5 µM | 2.2 ± 0.3 µM | 79 ± 11 µM | 0.006 ± 0.0006 µM |  | 0.65 ± 0.11 µM | 16 ± 2 µM | 0.046 ± 0.003 µM | N=C1Sc2ccc(F)cc2C2=NCCCN12 [Compound 13l, 10-Fluoro-3,4-Dihydrobenzo[e]Pyrimido[1,2-c][1,3]Thiazin-6(2H)-Imine]
3 | 2.9 ± 0.3 µM |  | 2.6 ± 0.4 µM |  | 10 ± 0.56 µM | > 50 µM | 147 ± 73 µM | 2.84 ± 0.13 µM | > 1000 µM | 0.0041 ± 0.0002 µM |  | 9 ± 4 µM | 33 ± 3 µM | 0.17 ± 0.02 µM | N=C1Sc2cc(F)ccc2C2=NCCCN12 [Compound 13f, 9-Fluoro-3,4-Dihydrobenzo[e]Pyrimido[1,2-c][1,3]Thiazin-6(2H)-Imine]
4 | 1.7 ± 0.2 µM |  | 1.7 ± 0.2 µM |  | 6.7 ± 0.4 µM | > 50 µM | 76 ± 7 µM | 2 ± 0.1 µM | > 1000 µM | 0.0029 ± 0.0001 µM |  | 2.8 ± 0.7 µM | 30 ± 3 µM | 0.14 ± 0.02 µM | N=C1Sc2cc(Br)ccc2C2=NCCCN12 [Compound 13g, 9-Bromo-3,4-Dihydrobenzo[e]Pyrimido[1,2-c][1,3]Thiazin-6(2H)-Imine]
